≈ marks a conversion by molar mass, not a printed value. Read-outs that look alike come from different tables or passages of the source.
Legend:
[1] = MTT cell viability assay, BEAS-2B normal cells; format: cell-based; conditions: human, BEAS-2B normal bronchial epithelial cells, 24 h incubation, read-out: Cytotoxicity EC50, BEAS 2B
Text: (§1) Human erythrocytes were purchased from the blood transfusion station Vladivostok. Human breast cancer cell lines MCF-7^HTB−22, and MDA-MB-231^CRM-HTB−26, liver hepatocellular carcinoma Hep G2^HB−8065, prostate adenocarcinoma PC-3^CRL−1435, cervical adenocarcinoma HeLa^CRM-CCL−2, and normal bronchial epithelial cells BEAS-2B ^CRL−3588 were received from ATCC (Manassas, VA, USA).
(§2) DMEM medium (Biolot, Russia) with 1% penicillin/streptomycin and 10% fetal bovine serum (FBS) (Biolot, Russia) was used for cultivation of Hep G2, PC-3, HeLa, and Beas-2b. MEM medium (Biolot, Russia) with 1% penicillin/streptomycin sulfate (Biolot, Russia) and FBS (Biolot, Russia) to a final concentration of 10% for MCF-7 and MDA-MB-231 cells.
(§3) The effect of the studied compounds on the viability of human cancer and normal cells was determined using the MTT (3-[4,5-dimethylthiazol-2-yl]-2,5 diphenyl tetrazolium bromide) assay. Briefly, 6 × 10^3 cells per well were seeded into 96-well plates and incubated for 24 h for adhesion, followed by incubation for 24 h with different concentrations of the substances. After incubation, the medium containing the test substances was replaced with 100 µL of fresh medium. Then, 10 μL of MTT (Sigma-Aldrich, Madison, WI, USA) reagent (5 mg/mL MTT in PBS) was added into the cells and the plates for additional 4 h. Thereafter, 100 µL of SDS-HCl solution (1 g SDS/10 mL dH2O/17 µL 6N HCl) was added to each well and incubated for 18 h. The absorbance of the converted formazan dye was measured using a Multiskan FC microplate photometer (Thermo Scientific, Waltham, MA, USA) at a wavelength of 570 nm. All experiments were performed in triplicate. Cytotoxic activity was expressed as a percentage of the cell viability.

[2] = tested on: Hep G2 (hepatocellular carcinoma); assay: MTT cell viability assay, Hep G2; format: cell-based; conditions: Homo sapiens, HepG2, 24 h incubation, read-out: Cytotoxicity EC50, Hep G2
Text: as §1, §2, §3

HeLa cells = assay: Wound scratch migration assay; format: cell-based; conditions: Homo sapiens, 24 h, read-out: Migration inhibition effect
Experimental: To analyze the effect of the tested compounds on the migration of HeLa tumor cells, special migration inserts (Culture-insert 2 Well 24, ibiTreat, Martinsried, Germany) were used, which left a gap of 500 ± 50 μm (according to the manufacturer’s data) between the cells attached to the plate. HeLa cells at a concentration of 5 × 10^5 were added to each well of the migration insert for 24 h, the insert was removed, and the cells were washed twice with PBS to remove cell debris and floating cells and loaded with the fluorescent probe CFDA-SE (Lumiprobe, Moscow, Russia) at a concentration of 10 µM for 5 min. The cells were treated with different concentrations of the studied compounds for 0 and 24 h. Cells treated with culture medium alone were used as vehicle controls. Cell migration in the wound area was observed under a fluorescence microscope (MIB-2-FL, LOMO, St. Petersburg, Russia) with a 10× objective.

[3] = tested on: Candida albicans (KMM 455); assay: Antimicrobial activity, inhibition of microbial growth (optical density); format: cell-based; conditions: Candida albicans, KMM455; 18 h, OD 620 nm; read-out: Inhibition of Microbial Growth MIC50, C. albicans
Experimental: (§4) The antimicrobial activity of the compounds was determined against Gram-positive bacteria Staphylococcus aureus (ATCC 21027), Gram-negative bacteria Escherichia coli (VKPM B-7935), and yeast-like fungi Candida albicans (KMM 455) (all test strains were obtained from the Collection of Marine Microorganisms KMM PIBOC FEB RAS) in liquid nutrient media. Test cultures of S. aureus, E. coli, and C. albicans were grown in Petri dishes on a solid nutrient medium (Mueller–Hinton broth with the addition of agar—16.0 g/L) at 37 °C for 24 h. The antimicrobial activity of the compounds was determined by the change in optical density and expressed as the percentage of bacterial inhibition at different concentrations of substances added to the well of the microorganism suspension, compared to the control. The compounds were dissolved in dimethyl sulfoxide (DMSO) at a concentration of 10 mM and stored at −20 °C. Before the experiment, the solution of substances in DMSO was diluted with PBS at a concentration of 0.5–100.0 µM and added to the wells so that the concentration of DMSO in the culture medium was less than 1%. Antimicrobial activity was determined in 96-well microplates in a liquid Mueller–Hinton nutrient medium. For S. aureus, E. coli, and C. albicans, a bacterial suspension of 10^6 CFU in 1 mL of the media was used, 90 μL was added to each well of the microplates and then incubated in a thermostatted shaker at 37 °C for 18 h. Inhibition of microorganism growth was assessed by measuring the optical density at 620 nm using a microplate reader (Thermo Fisher Scientific, Waltham, MA, USA) after preliminary shaking of the plates for 10 min. All experiments were performed in triplicate. Gentamicin (S. aureus and E. coli) and nitrofungin (C. albicans) were used as positive controls, and 1% DMSO in PBS was used as a negative control.

[4] = tested on: Staphylococcus aureus (ATCC 21027); assay: as above; format: cell-based; conditions: Staphylococcus aureus, ATCC21027; 18 h, OD 620 nm; read-out: Inhibition of Microbial Growth MIC50, S. aureus
Experimental: as §4

[5] = tested on: Escherichia coli (VKPM B-7935); assay: as above; format: cell-based; conditions: Escherichia coli; 18 h, OD 620 nm; read-out: Inhibition of Microbial Growth MIC50, E. coli
Experimental: as §4

[6] = tested on: Candida albicans (KMM 455); assay: Inhibition of biofilm formation (MTT); format: cell-based; conditions: 24 h
Experimental: (§5) Biofilm formation was performed according to the method described by Walencka et al., with minor modifications. The compounds were dissolved in dimethyl sulfoxide (DMSO) at a concentration of 10 mM and stored at −20 °C. Before the experiment, the solution of substances in DMSO was diluted with PBS at a concentration of 0.5–100.0 µM and added to the wells so that the concentration of DMSO in the culture medium was less than 1%. Biofilm formation was assessed in 96-well microplates in a liquid Mueller–Hinton nutrient medium. For S. aureus, E. coli, and C. albicans, a bacterial suspension of 10^6 CFU in 1 mL of medium was used, 90 μL was added to each well of the microplates and then incubated in a thermostatted shaker at 37 °C for 24 h. After incubation, the suspension of planktonic microorganisms was removed from the plate and washed with PBS. Next, 100 μL of PBS and 10 μL of MTT (3-(4,5-dimethylthiazol-2-yl)-2,5-diphenyltetrazolium bromide, MTT reagent, Sigma) stock solution (5 mg/mL) were added to the wells and incubated for 3 h at 37 °C. After incubation, all the solution was removed from the wells, 100 μL of DMSO was added, and the plate was shaken for 10 min until all formazan crystals had dissolved. The absorption was measured using a plate reader (Thermo Fisher Scientific, Waltham, MA, USA) at a wavelength of 570 nm. The activity of the substances was assessed by the change in optical density compared with that of the control. All experiments were performed in triplicate. Gentamicin (S. aureus and E. coli) and nitrofungin (C. albicans) were used as positive controls, and 1% DMSO in PBS was used as a negative control.

[7] = tested on: Staphylococcus aureus (ATCC 21027); assay: Inhibition of biofilm formation (MTT); format: cell-based; conditions: 24 h
Experimental: as §5

[8] = tested on: MDA-MB-231 (triple-negative breast cancer); assay: MTT cell viability assay, MDA-MB-231; format: cell-based, human; conditions: 24 h incubation, read-out: Cytotoxicity EC50, MDA-MB-231 (TNBC)
Text: as §1, §2, §3

Human erythrocytes = assay: Hemolytic activity (destruction of erythrocyte membranes); format: cell-based
Text: as §1

HeLa (cervical cancer) = assay: MTT cell viability assay, HeLa; format: cell-based, human; conditions: 24 h incubation, read-out: Cytotoxicity EC50, HeLa
Text: as §1, §2, §3

[9] = in vivo experiments; cited from earlier work
LLC = conditions: injected intraperitoneally; cited from earlier work
melanoma B-16 = conditions: injected intraperitoneally; cited from earlier work

SMILES	EC50 at 24 h [1] [µM]	EC50 [2] [µM]	inhibition at 10 µM (HeLa cells) [%]	MIC50 [3] [µM]	MIC50 [4] [µM]	MIC50 [5] [µM]	Inhibition of Biofilm Formation MIC50, C. albicans [6] [µM]	Inhibition of Biofilm Formation MIC50, S. aureus [7] [µM]	EC50 ([8]; Homo sapiens, MDA-MB-231, 24 h) [µM]	Hemolytic activity, erythrocytes (Human erythrocytes) [µM]	EC50 (HeLa (cervical cancer); Homo sapiens, HeLa, 24 h) [µM]	EC50 [8] [µM]	EC50 (HeLa (cervical cancer)) [µM]	Acute toxicity in vivo [9]	Inhibition of development of solid tumor LLC (LLC)	Inhibition of development of solid tumor melanoma B-16 (melanoma B-16)
CC(=O)O[C@@H]1[C@@H](OC(C)=O)[C@H](SSc2sc(N)nc2-c2ccc(Br)cc2)OC[C@H]1OC(C)=O [Compound 4h, 5-[(2,3,4-Tri-O-acetyl-β-D-xylopyranosyl)disulfanyl]-2-amino-4-(4-bromophenyl)thiazole]	19.9	24.6	~43	4.3 ± 0.5 (≈ 2.48 µg/mL)	2.4 ± 0.2 (≈ 1.39 µg/mL)	5.8 ± 0.4 (≈ 3.35 µg/mL)	7.11	6.32	21.1	> 25	21.3	–	–	–	–	–
CC(=O)OC[C@H]1O[C@@H](SSc2sc(N)nc2-c2ccc(C)cc2)[C@H](OC(C)=O)[C@@H](OC(C)=O)[C@@H]1OC(C)=O [Compound 4e, 5-[(2,3,4,6-Tetra-O-acetyl-β-D-glucopyranosyl)disulfanyl]-2-amino-4-(p-tolyl)thiazole]	> 25	> 25	~43	17.7 ± 0.3 (≈ 10.3 µg/mL)	> 50	> 50	–	–	15	–	18.5	15	18.5	–	–	–
COc1ccc(-c2nc(N)n(C)c2SSc2c(-c3ccc(OC)cc3)nc(N)n2C)cc1 [polycarpine]	–	–	–	–	–	–	–	–	–	–	–	–	–	acute toxicity	–	–
COc1ccc(-c2nc(N)sc2SSc2sc(N)nc2-c2ccc(OC)cc2)cc1 [Compound 1a]	> 25	> 25	–	38.2 ± 3.2 (≈ 18.1 µg/mL)	10.3 ± 1.1 (≈ 4.89 µg/mL)	> 50	–	–	21.4	–	> 25	–	–	–	effectively inhibited	effectively inhibited

Reference: article PMC11943723, “Synthesis and Biological Activity of Glycosyl Thiazolyl Disulfides Based on Thiacarpine, an Analogue of the Cytotoxic Alkaloid Polycarpine from the Ascidian Polycarpa aurata” (Marine Drugs, 2025)
